Data from US20120083599A1 (UNIVERSITY OF NOTTINGHAM, priority 2009, published 2012).
pKd: −log10 of the molar value. Like-named read-outs stand apart in the source and are kept apart here.

Key:
BirA = BirA (Escherichia coli, UniProt P06709); conditions: cited from earlier work
avidin [1] = target: T1, avidin (Gallus gallus, UniProt P02701); experiment: Binding to avidin after click chemistry attachment of a fluorophore (native gel)
Procedure: 2) With protein (avidin) present: 0.29 mL 2-azidiobiotin solution (3.5 mM in Buffer A) was diluted in 0.71 mL Buffer A, then 1 mL avidin solution (0.21 mM) was added. The mixed solution was put in a shaker (25° C., 100 rpm) for 1 h. Then 0.5 mL alkynyl tag solution (10 mM in dioxane), 0.5 mL CuSO4-TTA solution (10 mM in ^tBuOH:H2O (4:1) solvents), 0.2 mL TCEP.HCl solution (50 mM in H2O), 0.5 mL NaHCO3 solution (200 mM in H2O), 0.25 mL ^tBuOH, 1 mL H2O were added to the reaction mixture. The mixture was put on the shaker (25° C., 100 rpm) for 2 h, then stored at 4° C. Buffer A: pH 7.4 20 mM phosphate, 150 mM NaCl buffer.

biotin ligase (BirA) = biotin ligase (BirA) (Escherichia coli, UniProt P06709); experiment: Addition to acceptor peptide using BirA biotin ligase (HPLC); type: biochemical, E. coli; conditions: for Substrate for BirA: biotin ligase (BirA) from E. coli
biotin ligase [2] = conditions: cited from earlier work
other biotin ligases = conditions: cited from earlier work
avidin [3] = target: T1, avidin; experiment: Binding affinity for avidin by isothermal titration calorimetry
biotin ligase [4] = target: T2, biotin ligase (Saccharomyces cerevisiae, UniProt P48445); conditions: cited from earlier work
T2 sequence (P48445 1-690): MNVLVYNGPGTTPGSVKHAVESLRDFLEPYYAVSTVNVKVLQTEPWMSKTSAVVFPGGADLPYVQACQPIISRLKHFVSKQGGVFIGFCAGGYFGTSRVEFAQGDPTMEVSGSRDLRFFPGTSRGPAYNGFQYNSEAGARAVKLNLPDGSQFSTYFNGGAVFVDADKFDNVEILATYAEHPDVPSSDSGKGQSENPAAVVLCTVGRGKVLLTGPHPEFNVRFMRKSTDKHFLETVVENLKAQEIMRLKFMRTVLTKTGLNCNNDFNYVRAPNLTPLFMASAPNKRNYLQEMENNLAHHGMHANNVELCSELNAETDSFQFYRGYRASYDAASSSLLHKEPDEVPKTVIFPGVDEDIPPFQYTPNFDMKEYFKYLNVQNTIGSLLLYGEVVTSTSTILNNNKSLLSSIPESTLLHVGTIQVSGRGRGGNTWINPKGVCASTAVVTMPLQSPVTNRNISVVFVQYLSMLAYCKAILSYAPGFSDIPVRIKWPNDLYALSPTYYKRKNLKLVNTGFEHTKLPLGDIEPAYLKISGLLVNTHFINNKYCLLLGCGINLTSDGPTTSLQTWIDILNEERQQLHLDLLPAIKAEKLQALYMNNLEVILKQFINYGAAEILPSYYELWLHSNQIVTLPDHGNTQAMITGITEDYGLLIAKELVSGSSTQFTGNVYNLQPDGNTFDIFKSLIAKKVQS

Sequence of biotin ligase (BirA) (P06709 whole entry): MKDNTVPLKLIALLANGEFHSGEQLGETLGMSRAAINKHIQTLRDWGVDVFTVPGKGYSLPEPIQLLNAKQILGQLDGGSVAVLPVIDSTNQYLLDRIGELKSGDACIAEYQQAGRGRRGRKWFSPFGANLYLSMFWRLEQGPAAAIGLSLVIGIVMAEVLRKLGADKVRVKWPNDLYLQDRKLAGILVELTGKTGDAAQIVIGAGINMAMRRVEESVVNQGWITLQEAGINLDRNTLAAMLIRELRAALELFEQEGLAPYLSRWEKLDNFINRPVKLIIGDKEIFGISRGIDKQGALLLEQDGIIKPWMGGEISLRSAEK
T1 sequence (P02701 25-152, species assumed): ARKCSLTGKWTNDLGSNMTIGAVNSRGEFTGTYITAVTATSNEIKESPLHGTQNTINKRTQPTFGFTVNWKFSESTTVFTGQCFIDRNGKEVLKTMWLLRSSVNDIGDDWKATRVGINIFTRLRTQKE
Sequence of BirA (P06709 whole entry): as the sequence (P06709 whole entry) above

Row | Molecule | Binds to avidin once covalently modified (avidin [1]) | Substrate for BirA (biotin ligase (BirA)) | Substrate for other biotin ligases (other biotin ligases) | Binds to avidin (avidin [3]) | Affinity for avidin (in words) (avidin [3]) | other results
1 | O=C(O)CCCC[C@@H]1SC[C@@H]2CC(=O)C[C@@H]21 [ketone biotin, Ketone biotin] | No | Yes | – | – | – | BirA ligation yield (product inhibition) (BirA): ~50%
2 | C#CCN1C(=O)N[C@H]2CS[C@@H](CCCCC(=O)O)[C@H]21 [cis-propargyl biotin] | No | No | Yes | No/very weak | – | Substrate of Pyrococcus horikoshii biotin ligase (biotin ligase [2]): could use; Substrate of Saccharomyces cerevisiae biotin ligase (biotin ligase [4]): could utilise
3 | C[C@@H]1NC(=O)N[C@@H]1CCCCCC(=O)O [desthiobiotin] | – | – | – | – | – | Substrate of Pyrococcus horikoshii biotin ligase (biotin ligase [2]): could use
4 | [N-]=[N+]=NC(CCC[C@@H]1SC[C@@H]2NC(=O)N[C@@H]21)C(=O)O (stereo partly shown) [2-azidobiotin] | able to binded to avidin | Yes | – | Yes | moderate-good affinity | pKd (avidin [3]; ITC, pH 7.4, 20 mM phosphate, 150 mM NaCl): ~7.00; Binds to avidin once covalently modified (avidin [1]; listed as 2 Azidobiotin): Yes; Level of conversion to acceptor peptide adduct by BirA, compared with biotin (biotin ligase (BirA); HPLC, 30 C, 1 h): very similar to that of biotin
5 | 8-Azidodesthiobiotin | No | not substrates | Yes | Very weak | low affinities | Substrate for BirA (biotin ligase (BirA); listed as D 8-azido-desthiobiotin): No
6 | 6-Azidodesthiobiotin | No | not substrates | – | Very weak | low affinities | Substrate for BirA (biotin ligase (BirA); listed as E 6-azido-desthiobiotin): No
7 | O=C(O)CCCC[C@@H]1SC[C@@H]2NC(=O)N[C@@H]21 [biotin] | – | Yes | Yes | Yes | – | –
